Molecular target: T1, interleukin converting enzyme (ICE) (Homo sapiens, UniProt P29466)
T1 sequence (P29466 120-297 limits assumed): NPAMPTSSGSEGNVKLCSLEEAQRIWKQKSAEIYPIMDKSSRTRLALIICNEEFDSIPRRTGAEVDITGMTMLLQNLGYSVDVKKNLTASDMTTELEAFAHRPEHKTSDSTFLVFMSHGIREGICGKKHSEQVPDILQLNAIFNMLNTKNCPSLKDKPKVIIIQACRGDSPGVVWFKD
T1 sequence (P29466 317-404 limits assumed): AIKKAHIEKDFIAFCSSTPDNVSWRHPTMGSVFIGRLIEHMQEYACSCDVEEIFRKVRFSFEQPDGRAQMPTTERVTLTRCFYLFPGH
Test: ICE inhibition (inhibition constant)
Format: biochemical
Conditions: reversible covalent binding (thiohemiacetal linkage) to ICE

Ki: ~1000 nM
Structure (SMILES): O=C(c1ccccc1)c1ccccn1 [2-Benzoylpyridine]

Reference: patent US5798247A, “Organic-chemical compound with ice-inhibitory action” (BASF Aktiengesellschaft, priority 1997, dated 1998)
